We go through five molecules from US7928206B2 (priority 2002, dated 2011).

Like-named read-outs stand apart in the source and are kept apart here.

Data set [1] relates to glioblastoma U-87 MG cells transduced with pLCXSN (retroviral vector alone). The data set is described as follows: cells. As to conditions: Homo sapiens, 120 h, 5 days of drug exposure.
The target of data set [2] is T1, rAT-ΔN45TK1b, Arabidopsis thaliana thymidine kinase AT-TK1b (SEQ ID NO: 13) with N-terminal deletion of 45 amino acids (Arabidopsis thaliana, UniProt F4KBF5).
T1 sequence (F4KBF5 51-282): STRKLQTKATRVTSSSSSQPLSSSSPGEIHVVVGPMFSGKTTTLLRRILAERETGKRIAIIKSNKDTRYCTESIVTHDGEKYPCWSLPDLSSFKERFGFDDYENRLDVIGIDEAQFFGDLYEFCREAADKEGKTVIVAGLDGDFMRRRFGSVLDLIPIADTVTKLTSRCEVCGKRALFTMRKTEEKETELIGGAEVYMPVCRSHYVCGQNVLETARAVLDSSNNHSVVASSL
Kind of data set: Kinetic constants of purified recombinant thymidine kinase (rAT-ΔN45TK1b). It counts as biochemical, thale cress (Arabidopsis thaliana). As to conditions: substrate AZT. How it is done:
An N-terminal deletion of 45 amino acids was achieved by using the primers
The resulting plasmid was named pGEX-2T-AT-ΔN45TK1b (P663).
(§1) Transformed KY895 were grown to an OD600 nm of 0.5-06 in LB/Ampicillin (100 μg/ml) medium at 37° C. and protein expression was induced by addition of IPTG to make 100 μM. The cells were further grown for 4 h at 25° C. and subsequently harvested by centrifugation.

Data set [3] concerns Glioblastoma U-87 MG. Kind of data set: Cell proliferation assay (XTT), sensitivity to AZT of transduced cells. The following applies: Homo sapiens, parental U-87 MG, construct None. The data set is classed as cell-based. How it is done:
293T packaging cells (ATTC CRL-11268) were cultured at 37° C. in OPTIMEM 1 medium (Life Technologies, Inc.). The constructed pLCXSN plasmid vector was transfected into the packaging cells using LipofectAMINE PLUS (Life Technology Inc.) according to the protocol provided by the supplier. The medium from the transfected cells was collected 48 hours after transfection, filtered through a […] filter, pelleted by ultracentrifugation (50,000×g, 90 minutes at 4° C.) and dissolved in TEN buffer (100 mM NaCl, 10 mM Tris pH 7.5, 1 mM EDTA).
The virus-containing buffer was subsequently used to transduce the cancer cell lines with MOI of 5.
(§2) Each experiment was performed in four replicates.
Background: Tetrazolium assays rely on reduction of a dye to a coloured formazan, in cell work by metabolically active cells.

Data set [4] addresses rHSV1-TK, human Herpes simplex virus type 1 thymidine kinase (Human alphaherpesvirus 1 strain 17, UniProt P0DTH5). Kind of data set: Kinetic constants of purified recombinant thymidine kinase (rHSV1-TK). It counts as biochemical. The following applies: substrate AZT. As for the experimental part: as §1
Data set [5] relates to glioblastoma U-87 MG cells transduced with HSV1-TK (human Herpes simplex virus type 1 thymidine kinase). The data set is described as follows: Cell proliferation (XTT), sensitivity to AZT. The data set is classed as cell-based. The following applies: 120 h, 5 days of drug exposure. How it is done:
as §2

In data set [6] the test system is glioblastoma U-87 MG cells transduced with PZG69: TomTK1 (tomato TK1, SEQ ID NO: 4). The data set is described as follows: cells. As to conditions: Homo sapiens, 120 h, 5 days of drug exposure. How it is done: (§3) Arabidopsis constructs based on AT-TK1a were cut with BamHI/XhoI, and tomato PCR fragments were cut with BglII/XhoI, and cloned into the BglII-XhoI site of plasmid vector pLCXSN, which is a retroviral transfer vector derived from pLXSN (Clontech, cat# K1060-B) by insertion of the CMV promoter upstream of the polylinker.
as §2

Data set [7] has as its target T2, rAT-TK1a, Arabidopsis thaliana thymidine kinase AT-TK1a, recombinant wild type, SEQ ID NO: 9 (Arabidopsis thaliana, UniProt Q9S750). The data set is described as follows: Kinetic constants of purified recombinant thymidine kinase (rAT-TK1a). It counts as biochemical, thale cress (Arabidopsis thaliana). As to conditions: substrate AZT. How it is done: as §1
In data set [8] the test system is glioblastoma U-87 MG cells transduced with PZG53: AtTK1 (AT-TK1a, Arabidopsis thaliana, SEQ ID NO: 9). Kind of data set: Cell proliferation (XTT), sensitivity to AZT. The following applies: Homo sapiens, 120 h, 5 days of drug exposure. The data set is classed as cell-based. How it is done:
as §3, §2

A short description of data set [9]: Cell proliferation (XTT), sensitivity to AZT. It counts as cell-based. As to conditions: Homo sapiens, U-87 MG, 120 h, 5 days of drug exposure. As for the experimental part: as §3, §2
Data set [10] addresses rTOM-TK1, tomato (Lycopersicum esculentum) thymidine kinase, recombinant wild type, SEQ ID NO: 4 (Solanum lycopersicum, UniProt Q71F77). The data set is classed as biochemical. The following applies: substrate AZT. As for the experimental part:
as §1

The target in data set [11] is T1, rAT-ΔN45TK1b, Arabidopsis thaliana thymidine kinase AT-TK1b (SEQ ID NO: 13) with N-terminal deletion of 45 amino acids. As to conditions: substrate Thd; data from Le Breton C, B. Sc. Report 2002; cited from earlier work.
Data set [12] deals with T2, rAT-TK1a, Arabidopsis thaliana thymidine kinase AT-TK1a, recombinant wild type, SEQ ID NO: 9. As to conditions: substrate Thd, data from Le Breton C, B. Sc. Report 2002, cited from earlier work.
The nature of data set [13]: AZT monophosphate kinase activity. It counts as biochemical. The following applies: 30 mU enzyme, 100 μM 3H-labelled substrate. How it is done: (§4) 5 μl, of this mixture were plated on polyethylenimine-cellulose plates, which were developed ascending in 0.5 M […]. The spots with the nucleosides and nucleotides were identified under UV light and cut out.
The radioactivity in the spots was extracted with 0.2 M KCl in 0.1 M HCl, and determined by liquid scintillation counting. 1 pmol radioactive nucleoside/tide counts 850 cpm. […]

Data set [14] in a line: dTMP kinase activity (monophosphate to diphosphate). It counts as biochemical. The following applies: 30 mU enzyme, 100 μM 3H-labelled substrate, 0 to 120 minutes. As for the experimental part: as §4
The radioactivity in the spots was extracted with 0.2 M KCl in 0.1 M HCl, and determined by liquid scintillation counting. 1 pmol radioactive nucleoside/tide counts 850 cpm.
The cpm obtained at the indicated times (15, 30, 60, 90 and 120 minutes, respectively) are determined in the TDP spots derived from 2.5 μl of the reaction mixture.

Data set [15] is described as follows: Kinetic constants of purified recombinant TK, substrate AZT. The following applies: from Tables 6 and 7.
The mark [16] stands for this setting: transient polyclonal cell lines.

rHSV1-TK, human Herpes simplex virus type 1 thymidine kinase, sequence (P0DTH5 whole entry): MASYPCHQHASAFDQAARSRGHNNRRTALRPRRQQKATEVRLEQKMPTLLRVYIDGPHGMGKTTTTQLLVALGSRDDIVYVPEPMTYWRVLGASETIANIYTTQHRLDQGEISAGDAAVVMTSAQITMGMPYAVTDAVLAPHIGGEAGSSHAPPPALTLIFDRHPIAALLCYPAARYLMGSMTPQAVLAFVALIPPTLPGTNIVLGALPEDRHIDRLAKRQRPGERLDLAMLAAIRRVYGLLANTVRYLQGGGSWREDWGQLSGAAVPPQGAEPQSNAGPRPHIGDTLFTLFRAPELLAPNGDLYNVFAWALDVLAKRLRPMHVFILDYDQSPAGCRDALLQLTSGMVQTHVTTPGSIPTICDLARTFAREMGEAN

For the molecule `Cc1cn([C@H]2C[C@H](N=[N+]=[N-])[C@@H](CO)O2)c(=O)[nH]c1=O` [AZT, 3′-azido-3′-deoxythymidine], the IC50 in [1] (stable polyclonal cell lines) is 4070 µM; in [1] (setting [16]) it was above 5000 µM; in data set [3] (listed under stable polyclonal cell lines) it was 2440 µM; in data set [3] (listed under transient polyclonal cell lines) it was 4470 µM; in data set [5] (stable polyclonal cell lines) it was 2580 µM; in data set [5] (setting [16]), above 5000 µM. Further, the IC50 in data set [6] (stable polyclonal cell lines) came to 17 µM; in data set [6] (setting [16]), 47 µM; in [8] (stable polyclonal cell lines), 71.9 µM; in data set [8] (setting [16]), 97 µM; in [9] (stable polyclonal cell lines, cells transduced with PZG56 construct), 132 µM; in data set [9] (stable polyclonal cell lines, cells transduced with PZG59 construct), 25.1 µM. The IC50 in data set [9] (transient polyclonal cell lines, cells transduced with PZG56 construct) was determined as 303 µM; in [9] (transient polyclonal cell lines, cells transduced with PZG59 construct), 26 µM. Moreover, the “Vmax for AZT” value is 242 mU/mg in data set [2], 4.1 mU/mg in data set [4], 244 mU/mg in data set [7] and 1579 mU/mg in data set [10]. For the same molecule, the “kcat for AZT” value in data set [2] was found to be 0.104 s⁻¹; in [4], 0.028 s⁻¹; in data set [7] it was 0.106 s⁻¹; in [10] it was 0.681 s⁻¹. Moreover, the Michaelis-Menten constant (Km) in data set [4] (read-out: Km for AZT) was 1.7 µM; in data set [7], 3.55 µM; in [10], 22.4 µM.
For the molecule `Cc1cn([C@H]2C[C@H](O)[C@@H](CO)O2)c(=O)[nH]c1=O` [Thd, thymidine], in data set [11], the “Vmax for Thd” value is reported as 165 mU/mg and the “kcat for Thd” value was 0.071 s⁻¹. Besides, the Km in data set [12] (read-out: Km for Thd) is 85 µM. For the same molecule, in data set [12], the “Vmax for Thd” value is listed as 452 mU/mg and the “kcat for Thd” value was 0.2 s⁻¹.
Consider “HSV1-TK: human Herpes simplex virus type 1 thymidine kinase, control; in Table 4 expressed from the pLCXSN vector, in Example 6 purified enzyme”, for which the “degree of phosphorylation of AZT-monophosphate, lower than the thymidine substrate” value in data set [13] is listed as 10 fold. The “phosphorylation of AZT-monophosphate” value in data set [13] (0 to 120 minutes) was “phosphorylates both substrates”. Further, the “phosphorylation of TMP to TDP” value in data set [14] is “phosphorylates both substrates”.

B1: rAT-TK1a: purified recombinant Arabidopsis thaliana thymidine kinase TK1a, SEQ ID NO: 9 (protein, listed as Arabidopsis thaliana)
chain: MATLKASFLIKTLDSDVTGDFLSDLERRGSGAVHVIMGPMFSGKSTSLLRRIKSEISDGRSVAMLKSSKDTRYAKDSVVTHDGIGFPCWALPDLMSFPEKFGLDAYNKLDVIGIDEAQFFGDLYEFCCKVADDDGKIVIVAGLDGDYLRRSFGAVLDIIPIADSVTKLTARCEVCGHKAFFTLRKNCDTRTELIGGADVYMPVCRKHYITNHIVIKASKKVLEDSDKARAESCVAATI
In the case of B1, the “ratio [kcat/Km (Thd)]/[kcat/Km (AZT)]” value in data set [15] amounted to 0.08.

B2: rTOM-TK1: purified recombinant tomato (Lycopersicum esculentum) thymidine kinase, SEQ ID NO: 4 (protein, listed as Lycopersicon esculentum)
chain: MAFSSSARNPVDLRNGSKNSFCPVGEIHVIVGPMFAGKTTALLRRVNLESNDGRNVVLIKSSKDARYAVDAVVTHDGTRFPCWSLPDLSSFKQRFGKDAYEKVDVIGIDEAQFFGDLYEFCCNAADFDGKIIVVAGLDGDYLRKSFGSVLDIIPLADTVTKLTARCELCNRRAFFTFRKTNETETELIGGADIYMPVCRQHYVNGQSVNESAKMVLESHKVSNELILESPLVDP
For the molecule B2, the “ratio [kcat/Km (Thd)]/[kcat/Km (AZT)]” value in data set [15] was 1.07.

As usually defined, the IC50 is the midpoint of a concentration-inhibition curve. As a reminder, the Km is the substrate concentration at which the rate is half of its maximum.
